Data: patent US6403563B1, “Antitumor composition containing a synergistic combination of an anthracycline derivative with a camptothecin derivate” (Pharmacia & Upjohn S.p.A., priority 1998, dated 2002)
“And” between values parts separate entries of the source, which are not always exact repeats. Identical values can stand only once.

Legend:
[1] = tested on: disseminated L1210 murine leukemia; assay: Antileukemic activity against disseminated L1210 leukemia in mice; assay type: in vivo
Text: For these experiments Ia was solubilized in [Cremophor®/EtOH=6.5:3.5]/[normal saline]=20/80 v/v, while CPT-11 was solubilized in water.

[2] = Crossing of the blood brain barrier
[3] = tested on: intracranially implanted P388 tumor cells; assay: Activity against intracranially transplanted P388 murine leukemia; assay type: in vivo, mice
Description: Brain tumors/metastases are generally unresponsive largely because cytotoxic drugs fail to cross the blood brain barrier. […] The compound was administered i.v. on days 1,5,9. Results reported in Tab.

[4] = CPT-11 alone 20 mg/kg/day iv days +1,2
[5] = Ia alone 2.9 mg/kg/day iv day +3
[6] = Ia alone 3.8 mg/kg/day iv day +3

Row | Structure (SMILES) | LTS (Long Term Survivors >60 days) [1, 4] | Tox (number of toxic deaths/number of mice) [1, 4] | ILS % (increase in life span) ([1]; CPT-11 alone 20 mg/kg/day iv days +1,2, L1210 10^5/mouse iv day 0) [%] | crossing of the blood brain barrier [2] | Tox (number of toxic deaths/number of mice) ([3]; Ia 2.1 mg/kg/day i.v. days 1, 5, 9) | ILS % (increase in life span) ([3]; Ia 2.1 mg/kg/day i.v. days 1, 5, 9, P388 10^4/mouse intracranially day 0) [%] | Tox (number of toxic deaths/number of mice) ([3]; Ia 2.7 mg/kg/day i.v. days 1, 5, 9) | ILS % (increase in life span) ([3]; Ia 2.7 mg/kg/day i.v. days 1, 5, 9 (optimal cumulative dose 8.1 mg/kg)) [%] | ILS % (increase in life span) [1, 5] [%] | LTS (Long Term Survivors >60 days) [1, 5] | Tox (number of toxic deaths/number of mice) [1, 5] | ILS % (increase in life span) [1, 6] [%] | LTS (Long Term Survivors >60 days) [1, 6] | Tox (number of toxic deaths/number of mice) [1, 6]
1 | CCc1c2c(nc3ccc(OC(=O)N4CCC(N5CCCCC5)CC4)cc13)-c1cc3c(c(=O)n1C2)COC(=O)[C@]3(O)CC [CPT-11, Irinotecan, reference compound] | 1/10 | without toxicity and 0/10 | 100 |  |  |  |  |  |  |  |  |  |  | 
2 | CC(=O)C1(O)Cc2c(O)c3c(c(O)c2C(OC2CC(N4CC4)C(OS(C)(=O)=O)C(C)O2)C1)C(=O)c1ccccc1C3=O (centres unmarked) [Ia, 4-demethoxy-3′-deamino-3′-aziridinyl-4′-methansulfonyl daunorubicin] |  |  |  | crosses the blood brain barrier | 0/20 | 44 | 1/20 | 46 | 92 | 0/10 | without toxicity and 0/10 | 108 | 0/10 | without toxicity and 0/10
